Data from patent US20220117938A1, “COMBINATON THERAPY WITH A DON PRODRUG AND AN IMMUNE CHECKPOINT INHIBITOR” (DRACEN PHARMACEUTICALS, INC., priority 2019, published 2022).

Tested on: Ninety four (94) cell lines and PBMC
Assay: Cell viability assay, SRB staining, 94 cell lines and PBMC (Example 7, Experiment 2)
Assay type: cell-based
Method: Ninety four (94) cell lines were seeded at a density varying from 500 to 7000 cells/well depending on their growth characteristics. PBMC were seeded at the density 50,000-100,000 cells/well. Cells were incubated for 48 h prior to compound treatment. Compound 1 and DON were evaluated at a concertation range of 1 nM up to 100 μM. Compound 1 dilutions in DMSO and DON dilutions in PBS were performed in 96-well 0.5 mL plates (Greiner Bio-One, Germany). Compounds were then diluted 1:100 in RPMI medium. […] of cells were treated by mixing with 10 μL of the compound-containing media (resulting in a final DMSO concentration of 0.1%). The cells were allowed to grow at 37° C. for 120 h. Cells were fixed to the surface by addition of 10% TCA (for adherent growing cells) or 50% TCA (for semi-adherent growing cells or cells growing in suspension). After an hour of incubation at 4° C., plates were washed twice with 400 μL of deionized water and dried. Cells were then stained with 100 μL of 0.04% wt/v SRB. The plates were incubated at room temperature for at least 30 min and washed six times with 1% acetic acid to remove unbound stain. The plates were left to dry at room temperature and bound SRB was solubilized with 100 μL of 10 mM Tris base. Optical density was measured at 492, 520 and 560 nm using a Deelux-LED96 plate reader (Deelux Labortechnik GmbH, Germany).
Cell lines were purchased directly from the ATCC, NCI, CLS, and DSMZ cell line collections. A master bank and working aliquots were prepared. Cells used for the study had undergone less than 20 passages. To rule out potential contamination or wrong assignment, all cell lines were tested by STR analysis. Absence of mycoplasma contamination was confirmed for all cell lines used in the studies.
The cell lines were grown in the media recommended by the suppliers in the presence of 100 U/mL penicillin and 100 μg/mL streptomycin supplied with 10% FCS (PAA, Germany). RPMI 1640, DMEM, and MEM Earle's medium were from PAA (Coelbe, Germany), supplements 2 mM L-glutamine, 1 mM Na-pyruvate and 1% NEAA were from PAA (Coelbe, Germany), 2.5% horse serum, hydrocortisone, transferin, beta-estradiol, selenite and 1 U/mL insulin from Sigma-Aldrich (Munich, Germany). RPMI medium was used for culturing the following cell lines: 5637, 22RV1, 7860, A2780, A431, A549, ACHN, ASPC1, BT20, BXPC3, CAKI1, CLS439, COLO205, COLO678, DLD1, DU145, EFO21, EJ28, HCT15, HS578T, IGROV1, JAR, LOVO, MCF7, MDA MB231, MDA MB435, MDA MB436, MDA MB468, MHHES1, MT3, NCI H292, NCI H358M, NCI H460, NCIH82, OVCAR3, OVCAR4, PANC 1005 (addition of insulin), PBMC, PC3, RDES, SF268, SF295, SKBR3, SK MEL28, SKMEL5, SKOV3, SW620, U2OS, UMUC3, and U031.
DMEM medium was used to culture A204, A375, A673, C33A, CASKI, HCT116, HEPG2, HS729, HT29, J82, MG63, MIAPACA2 (addition of horse serum), PANC1, PLCPRF5, RD, SAOS2, SKLMS1, SKNAS, SNB75, T24, and TE671.
MEM Earle's medium was used for CACO2, CALU6, HEK293, HELA, HT1080, IMR90, JEG3, JIMT1, SKHEP1, SKNSH, and U87MG. Cell seeding conditions were optimized for each cell line. The cell seeding density varied from 500 to 7000 cells/well depending on their growth characteristics. Peripheral blood mononuclear cells (PBMC) were freshly isolated from whole blood of an anonymous donor through density gradient centrifugation using Ficoll solution (d=1.077). In short, blood was diluted 1:1 with PBS and carefully placed on the Ficoll. After centrifugation 1000×g for 15 min (braking rate 0), the ring containing mainly leucocytes was collected in PBS followed by three times washing with PBS to reduce the platelets. PBMC were seeded at the density 50,000-100,000 cells/well. Cells were grown in 5% CO2 atmosphere in a NB-203XXL incubator (N-BIOTEK Inc., Korea).
Ninety-four cell lines were tested in parallel. Cell growth and treatment were performed in 96 well microtitre plates CELLSTAR® (Greiner Bio-One, Germany). […]

[1] = Homo sapiens, 22Rv1, 22RV1, prostate
[2] = Homo sapiens, 786-0, 786O, kidney
[3] = Homo sapiens, A204, A204, muscle
[4] = Homo sapiens, A673, A673, muscle
[5] = Homo sapiens, A2780, A2780, ovary
[6] = Homo sapiens, A-375, A375, skin
[7] = Homo sapiens, A-431, A431, skin
[8] = Homo sapiens, ASPC1, ASPC1, pancreas
[9] = Homo sapiens, BT-20, BT20, breast
[10] = Homo sapiens, C-33-A, C33A, endometrial
[11] = Homo sapiens, CAKI-1, CAKI1, kidney
[12] = Homo sapiens, COLO 205, COLO205, colon
[13] = Homo sapiens, Ca-Ski, CASKI, endometrial
[14] = Homo sapiens, Caco-2, CACO2, colon
[15] = Homo sapiens, Calu-6, CALU6, lung
[16] = Homo sapiens, DLD-1, DLD1, colon
[17] = Homo sapiens, DU-145, DU145, prostate
[18] = Homo sapiens, EFO-21, EFO21, ovary
[19] = Homo sapiens, EJ-28, EJ28, bladder
[20] = Homo sapiens, Granta-519, GRANTA-519, hematological
[21] = Homo sapiens, HCT-15, HCT15, colon
[22] = Homo sapiens, HCT-116, HCT116, colon
[23] = Homo sapiens, HEK293, HEK293, kidney
[24] = Homo sapiens, HL-60, HL-60, hematological
[25] = Homo sapiens, HT-29, HT29, colon
[26] = Homo sapiens, HT-1080, HT1080, connective tissue
[27] = Homo sapiens, HeLa, endometrial
[28] = Homo sapiens, HepG2, HEPG2, liver
[29] = Homo sapiens, IGROV-1, IGROV1, ovary
[30] = Homo sapiens, JEG-3, JEG3, placenta
[31] = Homo sapiens, JIMT-1, JIMT1, breast
[32] = Homo sapiens, K562, K-562, hematological
[33] = Homo sapiens, Kasumi 1, KASUMI-1, hematological
[34] = Homo sapiens, L-363, L-363, hematological
[35] = Homo sapiens, MCF7, MCF7, breast
[36] = Homo sapiens, MDA-MB-231, MDAMB231, breast
[37] = Homo sapiens, MDA-MB-435, MDAMB435, skin
[38] = Homo sapiens, MDA-MB-436, MDAMB436, breast

SMILES: CC(=O)N[C@@H](Cc1c[nH]c2ccccc12)C(=O)N[C@@H](CCC(=O)C=[N+]=[N-])C(=O)OC(C)C [Compound 1, Isopropyl (S)-2-((S)-2-acetamido-3-(1H-indol-3-yl)propanamido)-6-diazo-5-oxohexanoate]
- IC50 (5637, bladder): 2.43 µM
- IC50 (CLS439, bladder): 8.43 µM
- GI50 [1]: 1.02 µM
- IC50 [1]: 1.1 µM
- GI50 [2]: 3.34 µM
- IC50 [2]: 3.84 µM
- GI50 [3]: 2.65 µM
- IC50 [3]: 20.3 µM
- GI50 (Homo sapiens, A549, A549, lung): 9.04 µM
- IC50 (Homo sapiens, A549, A549, lung): 9.28 µM
- GI50 [4]: 3.49 µM
- IC50 [4]: 3.87 µM
- GI50 [5]: 3.04 µM
- IC50 [5]: 3.28 µM
- GI50 [6]: 4.13 µM
- IC50 [6]: 4.39 µM
- GI50 [7]: 14.2 µM
- IC50 [7]: 18.4 µM
- GI50 (Homo sapiens, ACHN, kidney): 7.88 µM
- IC50 (Homo sapiens, ACHN, kidney): 8.98 µM
- GI50 [8]: 5.96 µM
- IC50 [8]: 8.36 µM
- GI50 [9]: 20 µM
- IC50 [9]: 53.1 µM
- GI50 (Homo sapiens, BXPC-3, BXPC3, pancreas): 4.24 µM
- GI50 [10]: 7.46 µM
- IC50 [10]: 7.69 µM
- GI50 [11]: 5.3 µM
- IC50 [11]: 6.84 µM
- GI50 [12]: 2.73 µM
- IC50 [12]: 4.66 µM
- GI50 (Homo sapiens, COLO-678, COLO678, colon): 93 µM
- GI50 [13]: 5.9 µM
- IC50 [13]: 7.83 µM
- GI50 [14]: 19.4 µM
- IC50 [14]: 28.2 µM
- GI50 [15]: 5.88 µM
- IC50 [15]: 7.07 µM
- GI50 [16]: 9.25 µM
- IC50 [16]: 9.59 µM
- GI50 [17]: 8.82 µM
- IC50 [17]: 10.9 µM
- GI50 [18]: 6.86 µM
- IC50 [18]: 14.1 µM
- GI50 [19]: 5.82 µM
- IC50 [19]: 6.55 µM
- GI50 [20]: 0.687 µM
- IC50 [20]: 0.768 µM
- GI50 [21]: 20.1 µM
- IC50 [21]: 21.7 µM
- GI50 [22]: 1.31 µM
- IC50 [22]: 1.33 µM
- GI50 [23]: 9.21 µM
- IC50 [23]: 10.4 µM
- GI50 [24]: 1.09 µM
- IC50 [24]: 1.1 µM
- GI50 [25]: 0.88 µM
- IC50 [25]: 1.07 µM
- GI50 [26]: 2.61 µM
- IC50 [26]: 3.04 µM
- GI50 [27]: 11.8 µM
- IC50 [27]: 13.4 µM
- GI50 [28]: 7.87 µM
- IC50 [28]: 9.85 µM
- GI50 (Homo sapiens, Hs-578T, HS578T, breast): 36.4 µM
- GI50 [29]: 8.98 µM
- IC50 [29]: 10.7 µM
- GI50 (Homo sapiens, IMR-90, IMR90, lung): 14.6 µM
- GI50 [30]: 3.87 µM
- IC50 [30]: 4.78 µM
- GI50 [31]: 19.4 µM
- IC50 [31]: 40.6 µM
- GI50 [32]: 1.15 µM
- IC50 [32]: 1.2 µM
- GI50 [33]: 3.17 µM
- IC50 [33]: 7.95 µM
- GI50 [34]: 0.546 µM
- IC50 [34]: 0.717 µM
- GI50 (Homo sapiens, LoVo, colon): 5.16 µM
- IC50 (Homo sapiens, LoVo, colon): 5.55 µM
- GI50 [35]: 4.13 µM
- IC50 [35]: 8.59 µM
- GI50 [36]: 11.6 µM
- IC50 [36]: 14.6 µM
- GI50 [37]: 14.7 µM
- IC50 [37]: 15.2 µM
- GI50 [38]: 49.3 µM
- IC50 [38]: 131 µM
